Laboratory results published in patent US20200181284A1, “EPIGENETIC INHIBITORS FOR SENSITIZING HEMATOLOGIC OR OTHER MALIGNANCIES TO GLUCOCORTICOID THERAPY” (UNIVERSITY OF SOUTHERN CALIFORNIA, priority 2017, published 2020).

How the values were obtained:
[1] = system: NALM6 cells; experiment: Cell death assay (Presto Blue, 72 h) with dex plus inhibitor; assay type: cell-based, human
Experimental: Cells were plated in CellStar low evaporation lid 96-well round-bottom plate at a density of 100,000 cells/ml. Directly after plating, cells were treated in triplicate with serial dilutions of dexamethasone or vehicle control (0.1% ethanol). After 72 h, cell viability of each well was analyzed in duplicate using the Presto Blue Assay Reagent (Life Technologies). Fluorescence was measured and data were analyzed with Prism6 software.
FIGS. 40A, 40B, 40C, 40D-1, 40D-2, 40D-3, and 40D-4 show Aurora kinase B inhibitors sensitizing NALM6 cells to GC-induced cell death. As shown in FIGS. 40A and 40B, NALM6 cells were treated with the indicated dex concentration in addition to 0.75 μM ZM447439 (FIG. 40A), 16 nM AZD2811 (FIG. 40B), or equivalent volume of vehicle DMSO for 72 h, and cell survival was measured by a fluorescence metabolic assay. In each condition, the value measured with dex was normalized to the fluorescence value measured with ethanol. Percentage of survival is shown as the mean±SEM of 4 independent experiments and p-values for individual dex concentrations were calculated using a paired t-test. *p≤0.05, **p≤0.01, * * *p≤0.001. F-test comparing the two curves: p≤0.001. Insets show the EC50s that were calculated as the concentration at which half the cells remained alive, compare to vehicle controls. Error bars depict the SEM of 4 independent experiments and p-values were calculated to compare AURKB inhibitor treatment to DMSO using a paired t-test ** p≤0.01, * * *p≤0.001. […] The indicated proteins were then examined by immunoblot. As shown in FIGS. 40D-1, 40D-2, 40D-3, and 40D-4, NALM6 cells pre-treated with AZD2811 (16 nM) or DMSO for 24 h, were then treated for 8 h with 100 nM dex or ethanol. mRNA levels for the indicated GR target genes were measured by RT-qPCR and normalized to β-actin mRNA levels.
FIGS. 48A, 48B, 48C, 48D, 48E, and 48F show the effect of AURKB inhibitors on EHMT2 phosphorylation and dex-induced cell death. […] In each condition, the value measured with dex was normalized to the fluorescence value measured with ethanol. Percentage of survival is shown as the mean±SEM of 4 independent experiments and p-values for individual dex concentrations were calculated using a paired t-test. *p≤0.05, **p≤0.01, * * *p≤0.001. F-test comparing the two curves: p≤0.001. EC50s were calculated as the concentration at which half the cells remained alive, compare to vehicle controls. Error bars depict the SEM of 4 independent experiments and p-value was calculated to compare ZM treatment to DMSO using a paired t-test **p≤0.01, * * *p≤0.001. […] EC50s were calculated as the concentration at which half the cells remained alive, compare to vehicle controls. Error bars depict the SEM of 4 independent experiments and p-value was calculated to compare alisertib treatment to DMSO using a paired t-test. […] (E-F) RCH-ACV cells were treated with the indicated dex concentration in addition to 0.75 μM ZM447439 (FIG. 48E), 16 nM AZD2811 (FIG. 48F), or DMSO for 72 h, and cell survival was measured by a fluorescence metabolic assay. In each condition, the value measured with dex was normalized to the fluorescence value measured with ethanol. Percentage of survival is shown as the mean±SEM of 5 individual experiments and the p-value for each dex concentration was calculated using a paired t-test. *p≤0.05, **p≤0.01, * * *p≤0.001. F-test comparing the two curves: p≤0.001.
FIGS. 55A, 55B, and 55C show JIB-04 enhances GC-induced death of B-ALL cell line NALM6.

[2] = system: G9a and GLP coactivator function with GR; experiment: Transient MMTV-LUC luciferase reporter gene assay in CV-1 cells (GR, GRIP1, G9a or GLP); assay type: cell-based, human
Experimental: CV-1 cells were plated in hormone-free medium with 5% charcoal-stripped serum in 24-well plates the day before transfection. Cells were transfected using Lipofectamine 2000 (Invitrogen) with the indicated plasmids according to the manufacturer's protocol. After transfection, the cells were grown in hormone-free medium for 48 h in the presence or absence of 100 nM dex. Cell lysis and luciferase assays on cell extracts were performed with Promega luciferase assay kit. An aliquot of the cell lysate was reserved for immunoblot analysis of input samples. The results were normalized as indicated and presented as the mean±SEM of at least four independent experiments.
The results as shown in FIGS. 20A-20D generally highlight that G9a and GLP PTMs regulate their coactivator function. For FIG. 20A, CV-1 cells were transfected with MMTV-LUC reporter plasmid (200 ng) and plasmids encoding GR (1 ng), Grip1 (100 ng) and HA-labeled full length (FL) hG9a wild type or K185A or K185R mutants (150 or 400 ng) as indicated. Cells were grown with 100 nM dex or the equivalent amount of ethanol for 48 h and assayed for luciferase activity. Relative luciferase units are normalized to sample 3 and represent mean±SEM for eight independent experiments. p-value was calculated using a paired t-test. *p≤0.05, **p≤0.01. Whole-cell extracts were analyzed for G9a expression by immunoblot with anti-HA antibody. For FIG. 20B, transient reporter gene assays were performed as in A with HA-labeled hGLP WT or hGLP K205A (150 or 400 ng) as indicated. Relative luciferase units are normalized to sample 3 and represent mean±SEM for six independent experiments. p-value was calculated using a paired t-test. *p≤0.05. […] Relative luciferase units are normalized to sample 3 and represent mean±SEM for four independent experiments. p-value was calculated using a paired t-test. * * *p≤0.001. […] Relative luciferase units are normalized to sample 3 and represent mean±SEM for four independent experiments. p-value was calculated using a paired t-test. *p≤0.05. […]

Compound	GC-induced death of NALM6 cells ([1]; 72 hours with various dex concentrations plus KDM inhibitor)	dex-induced expression of the reporter gene ([2]; GR, GRIP1 and wild type G9a)	dex-induced expression of the reporter gene ([2]; mutant G9a with the methylation site mutated from lysine to arginine)	sensitivity of NALM6 cells to dex-induced apoptosis ([1]; 0.75 µM ZM447439 stronger effect than 0.625 μM, 72 h)	coactivator function of G9a and GLP, in cooperation with GRIP1 ([2]; 100 nM dex and 2 μM ZM447439, 48 h)
Clc1ccc(N/N=C(\c2ccccc2)c2ccccn2)nc1 [JIB-04, 5-chloro-N-[(E)-[phenyl(pyridin-2-yl)methylidene]amino]pyridin-2-amine]	effectively enhanced	enhanced	no effect	–	–
COc1cc2c(Nc3ccc(NC(=O)c4ccccc4)cc3)ncnc2cc1OCCCN1CCOCC1 [ZM447439, N-[4-[[6-methoxy-7-(3-morpholin-4-ylpropoxy)quinazolin-4-yl]amino]phenyl]benzamide]	–	–	–	significantly sensitized	significantly enhanced
